Measured values from patent US20260274891A1, “¿ OPIOID RECEPTOR AGONIST AND USE THEREOF” (CHENGDU AODA BIOTECHNOLOGY CO., LTD., priority 2023, published 2026).
Like-named read-outs stand apart in the source and are kept apart here. Bridge positions count the residues as written; N and C are the ends. Square brackets hold non-standard residues; d marks the D form. Side chains are listed from the residue outwards. Peptide text beside a SMILES is read from it. I, II: the chains in the order shown. * marks the point of attachment. X3 = NCCCC[C@@H](NC(=O)[C@@H](CCCCN)NC(=O)C1(N)CCN(*)CC1)C(=O)O; X21 = NCCCC[C@H](NC(=O)[C@H](CCCCN)NC(=O)C1(N)CCN(*)CC1)C(N)=O; X12 = CCOc1ccc(C[C@@H](NC(=O)[C@H](N)Cc2ccccc2)C(=O)*)cc1; Piperidinyl(4-NH2,4-CONH2) = NC(=O)C1(N)CCN(*)CC1; X10 = NCCCC[C@@H](NC(=O)C1(N)CCN(*)CC1)C(=O)O; X1 = NCCCC[C@@H](NC(=O)C1(N)CCN(*)CC1)C(N)=O; X4 = NCCCC[C@H](NC(=O)C1(N)CCN(*)CC1)C(=O)O; X6 = NCCCC[C@H](NC(=O)C1(N)CCN(*)CC1)C(N)=O; dAla(cPr) = N[C@H](CC1CC1)C(=O)O; Trifluoroethyl = FC(F)(F)C*; Api = NC1(C(=O)O)CCNCC1; iPr = CC(C)*

Biological target: T1, human κ opioid receptor (OPRK1) (Homo sapiens, UniProt P41145)
T1 construct: expressed in transfected cells; host or cells: CHO-K1
T1 sequence (P41145 whole entry): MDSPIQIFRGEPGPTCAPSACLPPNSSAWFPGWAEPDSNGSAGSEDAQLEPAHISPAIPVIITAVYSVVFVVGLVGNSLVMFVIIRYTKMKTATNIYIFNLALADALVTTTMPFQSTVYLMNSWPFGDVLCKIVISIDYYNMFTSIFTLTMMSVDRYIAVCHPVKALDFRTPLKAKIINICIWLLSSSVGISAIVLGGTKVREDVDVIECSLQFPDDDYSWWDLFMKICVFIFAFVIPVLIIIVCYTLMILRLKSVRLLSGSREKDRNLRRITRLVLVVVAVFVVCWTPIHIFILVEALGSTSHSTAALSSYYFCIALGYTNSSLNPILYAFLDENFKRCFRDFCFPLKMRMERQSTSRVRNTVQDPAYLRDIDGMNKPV
Assay: Determination of activities of κ receptor agonists: inhibition of forskolin-stimulated cAMP release (HTRF) in stably transfected CHO-K1 cells
Format: cell-based
Conditions: for Relative Activity %: relative to Difelikefalin = 100.0
Excerpt: Gi-coupled human κ opioid receptor (OPRK1), upon stimulation with its specific opioid receptor agonists, can inhibit the intracellular adenylate cyclase pathway, and decrease cAMP levels. Forskolin can stimulate cAMP release in cell lines highly expressing opioid receptors. By stimulating cell lines stably transfected with opioid receptors, the inhibitory effect of a test compound on forskolin-stimulated cAMP release can be measured to determine the activity of the compound. The relative light units (RLU) from the cells after stimulation with different doses were measured via the homogeneous time-resolved fluorescence technique (HTRF), and the EC50 value of the agonist was subsequently calculated. This activity determination method is a currently commonly used method for determining the activities of opioid receptor agonists at home and abroad.
A CHO-K1 cell line stably expressing opioid receptors was used. Stably transfected cells were stimulated with various concentrations of agonists (under the stimulation of a certain concentration of forskolin). The relative light units from the cells after stimulation with different doses were measured, from which the EC50 value of the agonist was subsequently obtained by calculation.

[1] = CHO-K1 cell line stably expressing opioid receptors, forskolin-stimulated cAMP, HTRF, read-out: EC50

SMILES: CCOc1ccc(C[C@@H](NC(=O)[C@H](N)Cc2ccccc2)C(=O)N[C@H](CC2CC2)C(=O)N[C@H](CCCCN)C(=O)N2CCC(N)(C(=O)N[C@H](CCCCN)C(N)=O)CC2)cc1 [Compound 71, D-Phe-D-Tyr(Et)-D-cyclopropylalanine-D-Lys-4-aminopiperidine-4-carboxamide-D-Lys-NH2] (H-[dF][dY](Et)[dAla(cPr)][dK]-X1; N-terminus assumed)
- EC50: 0.041 nM
- Relative Activity %: 1481.0%

SMILES: CC(C)C[C@@H](NC(=O)[C@@H](Cc1ccc(OC(C)C)cc1)NC(=O)[C@H](N)Cc1ccccc1)C(=O)N[C@H](CCCCN)C(=O)N1CCC(N)(C(=O)N[C@@H](CCCCN)C(=O)O)CC1 [Compound 100, D-Phe-D-Tyr(Ipr)-D-Leu-D-Lys-4-aminopiperidine-4-carboxamide-Lys-OH] (H-[dF][dY](iPr)[dL][dK]-X4; N-terminus assumed)
- EC50: 0.0716 nM
- Relative Activity %: 848.0%

SMILES: CCOc1ccc(C[C@@H](NC(=O)[C@H](N)Cc2ccccc2)C(=O)N[C@H](CC(C)C)C(=O)N[C@H](CCCCN)C(=O)N2CCC(N)(C(=O)NCC(=O)NCC(=O)NCC(=O)N[C@H](CCCCN)C(=O)O)CC2)cc1 [Compound 58, D-Phe-D-Tyr(Et)-D-Leu-D-Lys-4-aminopiperidine-4-carboxamide-Gly-Gly-Gly-D-Lys-OH] (H-[Api]([dK-dL-X12])GGG[dK]-OH; N-terminus assumed)
- EC50: 0.0515 nM
- Relative Activity %: 1179.0%

SMILES: CC(C)C[C@@H](NC(=O)[C@@H](Cc1ccc(Cl)cc1)NC(=O)[C@H](N)Cc1ccccc1)C(=O)N[C@H](CCCCN)C(=O)N1CCC(N)(C(=O)N[C@@H](CCCCN)C(=O)O)CC1 [Compound 112, D-Phe-D-Phe(4-C1)-D-Leu-D-Lys-4-aminopiperidine-4-carboxamide-Lys-OH]
- EC50: 0.0508 nM
- Relative Activity %: 1195.3%

SMILES: CCOc1ccc(C[C@@H](NC(=O)[C@H](N)Cc2ccccc2)C(=O)N[C@H](CC(C)C)C(=O)N[C@H](CCCCN)C(=O)N2CCC(N)(C(=O)NCC(=O)NCC(=O)N[C@H](CCCCN)C(=O)O)CC2)cc1 [Compound 54, D-Phe-D-Tyr(Et)-D-Leu-D-Lys-4-aminopiperidine-4-carboxamide-Gly-Gly-D-Lys-OH] (I: H-[Api]GG[dK]-OH / II: H-[dF][dY](Et)[dL][dK]; amide I:1-II:C; N-terminus assumed)
- EC50: 0.0471 nM
- Relative Activity %: 1289.2%

SMILES: CC(C)C[C@@H](NC(=O)[C@@H](Cc1ccc(OCC(F)(F)F)cc1)NC(=O)[C@H](N)Cc1ccccc1)C(=O)N[C@H](CCCCN)C(=O)N1CCC(N)(C(=O)N[C@H](CCCCN)C(=O)O)CC1 [Compound 96, D-Phe-D-Tyr(CH2CF3)-D-Leu-D-Lys-4-aminopiperidine-4-carboxamide-D-Lys-OH] (H-[dF][dY](Trifluoroethyl)[dL][dK]-X10; N-terminus assumed)
- EC50: 0.0494 nM
- Relative Activity %: 1229.1%

SMILES: CCOc1ccc(C[C@@H](NC(=O)[C@H](N)Cc2ccccc2)C(=O)N[C@H](CC(C)C)C(=O)N[C@H](CCCCN)C(=O)N2CCC(N)(C(=O)N[C@@H](CCCCN)C(=O)N[C@@H](CCCCN)C(=O)N[C@@H](CCCCN)C(=O)N[C@@H](CCCCN)C(=O)N[C@@H](CCCCN)C(=O)N[C@@H](CCCCN)C(=O)O)CC2)cc1 [Compound 14, D-Phe-D-Tyr(Et)-D-Leu-D-Lys-4-aminopiperidine-4-carboxamide-Lys-Lys-Lys-Lys-Lys-Lys-OH] (H-[Api]([dK-dL-X12])KKKKKK-OH; N-terminus assumed)
- EC50: 0.0655 nM
- Relative Activity %: 927.0%

SMILES: CC(C)C[C@@H](NC(=O)[C@@H](Cc1ccc(Br)cc1)NC(=O)[C@H](N)Cc1ccccc1)C(=O)N[C@H](CCCCN)C(=O)N1CCC(N)(C(=O)O)CC1 [Compound 116, D-Phe-D-Phe(4-Br)-D-Leu-D-Lys-4-aminopiperidine-4-carboxamide-OH]
- EC50: 0.136 nM
- Relative Activity %: 448.1%

SMILES: CCOc1ccc(C[C@@H](NC(=O)[C@H](N)Cc2ccccc2)C(=O)N[C@H](CC(C)C)C(=O)N[C@H](CCCCN)C(=O)N2CCC(N)(C(=O)N[C@H](CCCCN)C(=O)N[C@H](CCCCN)C(=O)O)CC2)cc1 [Compound 18, D-Phe-D-Tyr(Et)-D-Leu-D-Lys-4-aminopiperidine-4-carboxamide-D-Lys-D-Lys-OH] (H-[dF][dY](Et)[dL][dK]-X3; N-terminus assumed)
- EC50: 0.046 nM
- Relative Activity %: 1320.0%

SMILES: COc1ccc(C[C@@H](NC(=O)[C@H](N)Cc2ccccc2)C(=O)N[C@H](CC(C)C)C(=O)N[C@H](CCCCN)C(=O)N2CCC(N)(C(=O)N[C@@H](CCCCN)C(N)=O)CC2)cc1 [Compound 87, D-Phe-D-Tyr(Me)-D-Leu-D-Lys-4-aminopiperidine-4-carboxamide-Lys-NH2] (H-[dF][dY](Me)[dL][dK]-X6; N-terminus assumed)
- EC50: 0.0422 nM
- Relative Activity %: 1438.9%

SMILES: CCOc1ccc(C[C@@H](NC(=O)[C@H](N)Cc2ccccc2)C(=O)N[C@H](CC(C)C)C(=O)N[C@H](CCCCN)C(=O)N2CCC(N)(C(=O)N[C@@H](CCCCN)C(N)=O)CC2)cc1 [Compound 3, D-Phe-D-Tyr(Et)-D-Leu-D-Lys-4-aminopiperidine-4-carboxamide-Lys-NH2] (H-[dF][dY](Et)[dL][dK]-X6; N-terminus assumed)
- EC50: 0.0394 nM
- Relative Activity %: 1541.1%

SMILES: CCOc1ccc(C[C@@H](NC(=O)[C@H](N)Cc2ccccc2)C(=O)N[C@H](CC(C)C)C(=O)N[C@H](CCCCN)C(=O)N2CCC(N)(C(=O)N[C@@H](CCCCN)C(=O)N[C@@H](CCCCN)C(N)=O)CC2)cc1 [Compound 5, D-Phe-D-Tyr(Et)-D-Leu-D-Lys-4-aminopiperidine-4-carboxamide-Lys-Lys-NH2] (H-[dF][dY](Et)[dL][dK]-X21; N-terminus assumed)
- EC50: 0.041 nM
- Relative Activity %: 1481.0%

SMILES: CCc1ccc(C[C@@H](NC(=O)[C@H](N)Cc2ccccc2)C(=O)N[C@H](CC(C)C)C(=O)N[C@H](CCCCN)C(=O)N2CCC(N)(C(=O)N[C@H](CCCCN)C(=O)O)CC2)cc1 [Compound 134, D-Phe-D-Phe(4-Et)-D-Leu-D-Lys-4-aminopiperidine-4-carboxamide-D-Lys-OH]
- EC50: 0.133 nM
- Relative Activity %: 457.6%

SMILES: CCOc1ccc(C[C@@H](NC(=O)[C@H](N)Cc2ccccc2)C(=O)N[C@H](CC(C)C)C(=O)N[C@H](CCCCN)C(=O)N2CCC(N)(C(=O)N[C@H](CCCCN)C(=O)N[C@H](CCCCN)C(=O)N[C@H](CCCCN)C(=O)N[C@H](CCCCN)C(=O)N[C@H](CCCCN)C(=O)N[C@H](CCCCN)C(N)=O)CC2)cc1 [Compound 25, D-Phe-D-Tyr(Et)-D-Leu-D-Lys-4-aminopiperidine-4-carboxamide-D-Lys-D-Lys-D-Lys-D-Lys -D-Lys-D-Lys-NH2] (H-[Api]([dK-dL-X12])[dK][dK][dK][dK][dK][dK]-NH2; N-terminus assumed)
- EC50: 0.0684 nM
- Relative Activity %: 887.7%

SMILES: CCOc1ccc(C[C@@H](NC(=O)[C@H](N)Cc2ccccc2)C(=O)N[C@H](CC(C)C)C(=O)N[C@H](CCCCN)C(=O)N2CCC(N)(C(=O)NCC(=O)NCC(=O)NCC(=O)NCC(=O)NCC(=O)N[C@H](CCCCN)C(N)=O)CC2)cc1 [Compound 65, D-Phe-D-Tyr(Et)-D-Leu-D-Lys-4-aminopiperidine-4-carboxamide-Gly-Gly-Gly-Gly-Gly-D-Lys-NH2] (H-[Api]([dK-dL-X12])GGGGG[dK]-NH2; N-terminus assumed)
- EC50: 0.0884 nM
- Relative Activity %: 686.9%

SMILES: CC(C)C[C@@H](NC(=O)[C@@H](Cc1ccc(I)cc1)NC(=O)[C@H](N)Cc1ccccc1)C(=O)N[C@H](CCCCN)C(=O)N1CCC(N)(C(=O)N[C@H](CCCCN)C(N)=O)CC1 [Compound 125, D-Phe-D-Phe(4-I)-D-Leu-D-Lys-4-aminopiperidine-4-carboxamide-D-Lys-NH2]
- EC50: 0.055 nM
- Relative Activity %: 1104.0%

SMILES: CCOc1ccc(C[C@@H](NC(=O)[C@H](N)Cc2ccccc2)C(=O)N[C@H](CC2CC2)C(=O)N[C@H](CCCCN)C(=O)N2CCC(N)(C(N)=O)CC2)cc1 [Compound 67, D-Phe-D-Tyr(Et)-D-cyclopropylalanine-D-Lys-4-aminopiperidine-4-carboxamide-NH2] (H-[dF][dY](Et)[dAla(cPr)][dK]-{Piperidinyl(4-NH2,4-CONH2)}; N-terminus assumed)
- EC50 [1]: 0.127 nM
- Relative Activity %: 477.7%

SMILES: CC(C)C[C@@H](NC(=O)[C@@H](Cc1ccc(OC(C)C)cc1)NC(=O)[C@H](N)Cc1ccccc1)C(=O)N[C@H](CCCCN)C(=O)N1CCC(N)(C(=O)N[C@H](CCCCN)C(N)=O)CC1 [Compound 101, D-Phe-D-Tyr(Ipr)-D-Leu-D-Lys-4-aminopiperidine-4-carboxamide-D-Lys-NH2] (H-[dF][dY](iPr)[dL][dK]-X1; N-terminus assumed)
- EC50: 0.0728 nM
- Relative Activity %: 834.1%

SMILES: CCOc1ccc(C[C@@H](NC(=O)[C@H](N)Cc2ccccc2)C(=O)N[C@H](CC2CC2)C(=O)N[C@H](CCCCN)C(=O)N2CCC(N)(C(=O)N[C@@H](CCCCN)C(N)=O)CC2)cc1 [Compound 69, D-Phe-D-Tyr(Et)-D-cyclopropylalanine-D-Lys-4-aminopiperidine-4-carboxamide-Lys-NH2] (H-[dF][dY](Et)[dAla(cPr)][dK]-X6; N-terminus assumed)
- EC50 [1]: 0.0424 nM
- Relative Activity %: 1432.1%

SMILES: CCOc1ccc(C[C@@H](NC(=O)[C@H](N)Cc2ccccc2)C(=O)N[C@H](CC(C)C)C(=O)N[C@H](CCCCN)C(=O)N2CCC(N)(C(=O)NCC(=O)NCC(=O)NCC(=O)NCC(=O)N[C@@H](CCCCN)C(N)=O)CC2)cc1 [Compound 59, D-Phe-D-Tyr(Et)-D-Leu-D-Lys-4-aminopiperidine-4-carboxamide-Gly-Gly-Gly-Gly-Lys-NH2] (H-[Api]([dK-dL-X12])GGGGK-NH2; N-terminus assumed)
- EC50: 0.0694 nM
- Relative Activity %: 874.9%
